We go through 32 compounds from patent US11192877B2, “3-(5-hydroxy-1-oxoisoindolin-2-yl)piperidine-2,6-dione derivatives and uses thereof” (Novartis AG, priority 2018, dated 2021).

Counter-ions that a name gives are not always drawn. Like-named read-outs stand apart in the source and are kept apart here.

The test concerns the target IKZF2 (Helios) (Homo sapiens, UniProt Q96SW2+Q9UKS7). Put plainly: Prolabel quantification of IKZF2 protein levels in 293GT cells. In kind it is cell-based. The note with it: 24 h, read-out: IKZF2 % protein reduction at 10 μM, 24 h.
[1] abbreviates: Pro-label assay, 293GT cells, 10 μM.

Sequence of IKZF2 (Helios) (Q9UKS7 whole entry): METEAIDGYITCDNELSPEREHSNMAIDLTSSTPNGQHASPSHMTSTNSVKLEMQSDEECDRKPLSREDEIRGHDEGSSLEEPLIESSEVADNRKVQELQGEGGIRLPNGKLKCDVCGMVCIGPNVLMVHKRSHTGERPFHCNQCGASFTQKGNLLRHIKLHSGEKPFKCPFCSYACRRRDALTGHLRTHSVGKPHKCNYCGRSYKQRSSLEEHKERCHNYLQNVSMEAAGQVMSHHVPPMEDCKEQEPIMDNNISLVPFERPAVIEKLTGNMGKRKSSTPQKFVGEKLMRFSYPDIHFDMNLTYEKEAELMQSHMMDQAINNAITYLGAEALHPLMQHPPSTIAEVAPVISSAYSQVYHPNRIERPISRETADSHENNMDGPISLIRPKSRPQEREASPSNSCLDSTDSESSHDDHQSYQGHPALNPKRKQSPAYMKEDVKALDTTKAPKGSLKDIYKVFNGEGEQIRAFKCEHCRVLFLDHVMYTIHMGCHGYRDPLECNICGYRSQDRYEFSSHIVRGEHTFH
Sequence of IKZF2 (Helios) (Q96SW2 whole entry): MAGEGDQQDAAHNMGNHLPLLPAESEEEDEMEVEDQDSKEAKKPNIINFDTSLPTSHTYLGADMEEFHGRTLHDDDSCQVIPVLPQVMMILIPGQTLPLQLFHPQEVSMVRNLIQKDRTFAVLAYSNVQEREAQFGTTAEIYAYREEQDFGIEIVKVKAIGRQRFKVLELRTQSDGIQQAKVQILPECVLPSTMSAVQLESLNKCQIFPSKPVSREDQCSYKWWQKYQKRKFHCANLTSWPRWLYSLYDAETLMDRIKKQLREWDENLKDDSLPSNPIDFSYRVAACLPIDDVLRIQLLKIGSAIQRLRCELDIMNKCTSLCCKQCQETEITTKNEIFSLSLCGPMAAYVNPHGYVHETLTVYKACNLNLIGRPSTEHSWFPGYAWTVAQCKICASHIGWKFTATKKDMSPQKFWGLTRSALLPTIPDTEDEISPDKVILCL
Sequence of IKZF2 (Helios) (Q16531 whole entry partner): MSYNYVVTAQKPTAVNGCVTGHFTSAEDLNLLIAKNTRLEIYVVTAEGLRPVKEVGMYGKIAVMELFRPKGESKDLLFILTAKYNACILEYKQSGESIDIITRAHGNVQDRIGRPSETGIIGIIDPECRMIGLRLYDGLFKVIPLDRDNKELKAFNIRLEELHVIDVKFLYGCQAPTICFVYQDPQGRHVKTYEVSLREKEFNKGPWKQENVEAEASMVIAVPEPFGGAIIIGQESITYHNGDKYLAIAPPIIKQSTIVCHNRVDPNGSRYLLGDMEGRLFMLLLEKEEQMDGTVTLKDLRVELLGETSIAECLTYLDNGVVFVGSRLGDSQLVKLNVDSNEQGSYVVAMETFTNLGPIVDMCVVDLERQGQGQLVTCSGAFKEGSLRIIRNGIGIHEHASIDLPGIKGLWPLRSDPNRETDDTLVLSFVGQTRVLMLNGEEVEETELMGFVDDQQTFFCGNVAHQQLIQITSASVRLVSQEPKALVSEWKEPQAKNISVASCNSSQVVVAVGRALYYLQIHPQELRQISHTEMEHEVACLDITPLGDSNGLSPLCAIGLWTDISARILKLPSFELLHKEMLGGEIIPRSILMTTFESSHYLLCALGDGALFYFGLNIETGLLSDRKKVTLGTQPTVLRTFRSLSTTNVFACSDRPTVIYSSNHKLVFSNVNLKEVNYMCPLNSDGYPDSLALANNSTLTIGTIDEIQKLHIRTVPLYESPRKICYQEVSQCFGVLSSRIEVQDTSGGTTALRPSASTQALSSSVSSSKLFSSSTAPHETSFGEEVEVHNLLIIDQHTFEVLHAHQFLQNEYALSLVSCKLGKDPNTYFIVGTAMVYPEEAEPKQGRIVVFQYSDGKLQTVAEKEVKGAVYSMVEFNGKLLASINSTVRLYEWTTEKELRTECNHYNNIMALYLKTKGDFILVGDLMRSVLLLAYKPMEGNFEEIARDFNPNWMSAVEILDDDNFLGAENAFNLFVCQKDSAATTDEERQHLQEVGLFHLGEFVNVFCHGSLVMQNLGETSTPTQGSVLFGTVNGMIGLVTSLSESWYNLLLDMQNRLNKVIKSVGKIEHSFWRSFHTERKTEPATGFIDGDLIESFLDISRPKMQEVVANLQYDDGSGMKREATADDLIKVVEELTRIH

Consider `O=C1CCC(N2Cc3cc(O[C@H]4CCCC[C@@H]4NCc4ccccc4)ccc3C2=O)C(=O)N1` (stereo partly drawn) [I-22, 3-(5-(((1S,2S)-2-(benzylamino)cyclohexyl)oxy)-1-oxoisoindolin-2-yl)piperidine-2,6-dione], for which, under setting [1], the IKZF2 % protein reduction at 10 µM amounted to 80%.

In the case of `O=C1CCC(N2Cc3cc(O[C@H]4CCC[C@@H]4N4CCc5ncccc5C4)ccc3C2=O)C(=O)N1` (stereo partly drawn) [I-190, 3-(5-(((1S,2S)-2-(7,8-dihydro-1,6-naphthyridin-6(5H)-yl)cyclopentyl)oxy)-1-oxoisoindolin-2-yl)piperidine-2,6-dione], the IKZF2 % protein reduction at 10 µM under setting [1] was found to be 39%.

With `CO[C@H]1CC[C@H](CN(C)[C@H]2CCC[C@@H]2Oc2ccc3c(c2)CN(C2CCC(=O)NC2=O)C3=O)CC1` (stereo partly drawn) [I-171, 3-(5-(((1S,2S)-2-((((1R,4S)-4-methoxycyclohexyl)methyl)(methyl)amino)cyclopentyl)oxy)-1-oxoisoindolin-2-yl)piperidine-2,6-dione], under setting [1], the IKZF2 % protein reduction at 10 µM came to 74%.

On to `CC1(CN[C@H]2CCCC[C@@H]2Oc2ccc3c(c2)CN(C2CCC(=O)NC2=O)C3=O)COC1` (stereo partly drawn) [I-87, 3-(5-(((1S,2S)-2-(((3-methyloxetan-3-yl)methyl)amino)cyclohexyl)oxy)-1-oxoisoindolin-2-yl)piperidine-2,6-dione], for which the IKZF2 % protein reduction at 10 µM under setting [1] was 79%.

As to `O=C1CCC(N2Cc3cc(O[C@H]4CCC[C@@H]4NCc4ccccc4)ccc3C2=O)C(=O)N1` (stereo partly drawn) [I-20, 3-(5-(((1S,2S)-2-(benzylamino)cyclopentyl)oxy)-1-oxoisoindolin-2-yl)piperidine-2,6-dione], the IKZF2 % protein reduction at 10 µM under setting [1] stood at 75%.

Regarding `CCN(CC)[C@H]1CCC[C@@H]1Oc1ccc2c(c1)CN(C1CCC(=O)NC1=O)C2=O` (stereo partly drawn) [I-13, 3-(5-(((1S,2S)-2-(diethylamino)cyclopentyl)oxy)-1-oxoisoindolin-2-yl)piperidine-2,6-dione], under setting [1], the IKZF2 % protein reduction at 10 µM amounted to 85%.

On to `O=C1CCC(N2Cc3cc(O[C@H]4CCC[C@@H]4NCc4cccnc4)ccc3C2=O)C(=O)N1` (stereo partly drawn) [I-150, 3-(1-oxo-5-(((1S,2S)-2-((pyridin-3-ylmethyl)amino)cyclopentyl)oxy)isoindolin-2-yl)piperidine-2,6-dione], for which the IKZF2 % protein reduction at 10 µM was determined as 51%.

On to `CO[C@H]1CCN(C2CCCC2Oc2ccc3c(c2)CN(C2CCC(=O)NC2=O)C3=O)C1` (single isomer, unassigned) [I-193], for which the IKZF2 % protein reduction at 10 µM under setting [1] stood at 79%.

Turning to `O=C1CCC(N2Cc3cc(O[C@H]4CCCC[C@@H]4NCc4ccc(F)cc4F)ccc3C2=O)C(=O)N1` (stereo partly drawn) [I-116, 3-(5-(((1S,2S)-2-((2,4-difluorobenzyl)amino)cyclohexyl)oxy)-1-oxoisoindolin-2-yl)piperidine-2,6-dione], the IKZF2 % protein reduction at 10 µM under setting [1] worked out at 65%.

Regarding `N[C@@H]1CCC[C@@H]1Oc1ccc2c(c1)CN(C1CCC(=O)NC1=O)C2=O` (stereo partly drawn) [I-28, 3-(5-(((1S,2R)-2-aminocyclopentyl)oxy)-1-oxoisoindolin-2-yl)piperidine-2,6-dione hydrochloride], the IKZF2 % protein reduction at 10 µM worked out at 0%.

Turning to `O=C1CCC(N2Cc3cc(O[C@H]4CCC[C@@H]4N4CCC5(CC4)OCCO5)ccc3C2=O)C(=O)N1` (stereo partly drawn) [I-17, 3-(5-(((1S,2S)-2-(1,4-dioxa-8-azaspiro[4.5]decan-8-yl)cyclopentyl)oxy)-1-oxoisoindolin-2-yl)piperidine-2,6-dione], the IKZF2 % protein reduction at 10 µM under setting [1] was determined as 80%.

In the case of `O=C1CCC(N2Cc3cc(O[C@H]4CCOC[C@@H]4NCc4ccccc4)ccc3C2=O)C(=O)N1` (stereo partly drawn) [I-21, 3-(5-(((3S,4S)-3-(benzylamino)tetrahydro-2H-pyran-4-yl)oxy)-1-oxoisoindolin-2-yl)piperidine-2,6-dione], the IKZF2 % protein reduction at 10 µM under setting [1] worked out at 30%.

As to `O=C1CCC(N2Cc3cc(O[C@H]4CCC[C@@H]4N4CCCCC4)ccc3C2=O)C(=O)N1` (stereo partly drawn) [I-32, 3-(1-oxo-5-(((1S,2S)-2-(piperidin-1-yl)cyclopentyl)oxy)isoindolin-2-yl)piperidine-2,6-dione], the IKZF2 % protein reduction at 10 µM under setting [1] was found to be 85%.

As to `O=C1CCC(N2Cc3cc(O[C@H]4CCCC[C@@H]4NCc4cccnc4)ccc3C2=O)C(=O)N1` (stereo partly drawn) [I-75, 3-(1-oxo-5-(((1S,2S)-2-((pyridin-3-ylmethyl)amino)cyclohexyl)oxy)isoindolin-2-yl)piperidine-2,6-dione], the IKZF2 % protein reduction at 10 µM under setting [1] came out at 79%.

`O=C1CCC(N2Cc3cc(O[C@H]4CCCC[C@@H]4N4CC(OCC5CC5)C4)ccc3C2=O)C(=O)N1` (stereo partly drawn) [I-51, 3-(5-(((1S,2S)-2-(3-(cyclopropylmethoxy)azetidin-1-yl)cyclohexyl)oxy)-1-oxoisoindolin-2-yl)piperidine-2,6-dione]: under setting [1], the IKZF2 % protein reduction at 10 µM was 90%.

With `O=C1CCC(N2Cc3cc(O[C@H]4CCCCC[C@@H]4NCC45CC(F)(C4)C5)ccc3C2=O)C(=O)N1` (stereo partly drawn) [I-67, 3-(5-(((1S,2S)-2-(((3-fluorobicyclo[1.1.1]pentan-1-yl)methyl)amino)cycloheptyl)oxy)-1-oxoisoindolin-2-yl)piperidine-2,6-dione], the IKZF2 % protein reduction at 10 µM under setting [1] came out at 74%.

As to `CC(C)OC1CN([C@H]2CCCC[C@@H]2Oc2ccc3c(c2)CN(C2CCC(=O)NC2=O)C3=O)C1` (stereo partly drawn) [I-53, 3-(5-(((1S,2S)-2-(3-isopropoxyazetidin-1-yl)cyclohexyl)oxy)-1-oxoisoindolin-2-yl)piperidine-2,6-dione], under setting [1], the IKZF2 % protein reduction at 10 µM was 88%.

For the compound `COC1CCC(CN[C@H]2CCCC[C@@H]2Oc2ccc3c(c2)CN(C2CCC(=O)NC2=O)C3=O)CC1` (stereo partly drawn) [I-123, 3-(5-(((1S,2S)-2-(((4-methoxycyclohexyl)methyl)amino)cyclohexyl)oxy)-1-oxoisoindolin-2-yl)piperidine-2,6-dione], under setting [1], the IKZF2 % protein reduction at 10 µM is 82%.

With `COC1CN([C@H]2CCC[C@@H]2Oc2ccc3c(c2)CN(C2CCC(=O)NC2=O)C3=O)C1` (stereo partly drawn) [I-157, 3-(5-(((1S,2S)-2-(3-methoxyazetidin-1-yl)cyclopentyl)oxy)-1-oxoisoindolin-2-yl)piperidine-2,6-dione], the IKZF2 % protein reduction at 10 µM under setting [1] was determined as 61%.

With `CN1CC[C@H]2CC[C@H](Oc3ccc4c(c3)CN(C3CCC(=O)NC3=O)C4=O)[C@H]21` (relative stereo) [I-3, 3-(5-(((3aR*,6S*,6aS*)-1-methyloctahydrocyclopenta[b]pyrrol-6-yl)oxy)-1-oxoisoindolin-2-yl)piperidine-2,6-dione], under setting [1], the IKZF2 % protein reduction at 10 µM amounted to 40%.

Turning to `CCN(CC)[C@H]1CCCC[C@@H]1Oc1ccc2c(c1)CN(C1CCC(=O)NC1=O)C2=O` (stereo partly drawn) [I-14, 3-(5-(((1S,2S)-2-(diethylamino)cyclohexyl)oxy)-1-oxoisoindolin-2-yl)piperidine-2,6-dione], the IKZF2 % protein reduction at 10 µM under setting [1] was found to be 60%.

With `CCN(CC)[C@H]1CCCCC[C@@H]1Oc1ccc2c(c1)CN(C1CCC(=O)NC1=O)C2=O` (stereo partly drawn) [I-59, 3-(5-(((1S,2S)-2-(diethylamino)cycloheptyl)oxy)-1-oxoisoindolin-2-yl)piperidine-2,6-dione], the IKZF2 % protein reduction at 10 µM was found to be 39%.

As for `CCN(CC12CC(F)(C1)C2)[C@H]1CCC[C@@H]1Oc1ccc2c(c1)CN(C1CCC(=O)NC1=O)C2=O` (stereo partly drawn) [I-136, 3-(5-(((1S,2S)-2-(ethyl((3-fluorobicyclo[1.1.1]pentan-1-yl)methyl)amino)cyclopentyl)oxy)-1-oxoisoindolin-2-yl)piperidine-2,6-dione], the IKZF2 % protein reduction at 10 µM under setting [1] came to 58%.

With `O=C1CCC(N2Cc3cc(O[C@H]4CCCC[C@@H]4NCC4CCOCC4)ccc3C2=O)C(=O)N1` (stereo partly drawn) [I-98, 3-(1-oxo-5-(((1S,2S)-2-(((tetrahydro-2H-pyran-4-yl)methyl)amino)cyclohexyl)oxy)isoindolin-2-yl)piperidine-2,6-dione], the IKZF2 % protein reduction at 10 µM under setting [1] amounted to 80%.

Consider `O=C1CCC(N2Cc3cc(OC4CCCC4N4CCC5(CCOCC5)C4)ccc3C2=O)C(=O)N1` (single isomer, unassigned) [I-183, 3-(5-((2-(8-oxa-2-azaspiro[4.5]decan-2-yl)cyclopentyl)oxy)-1-oxoisoindolin-2-yl)piperidine-2,6-dione], for which the IKZF2 % protein reduction at 10 µM under setting [1] was determined as 84%.

In the case of `CCN[C@H]1CCCCC[C@@H]1Oc1ccc2c(c1)CN(C1CCC(=O)NC1=O)C2=O` (stereo partly drawn) [I-57, 3-(5-(((1S,2S)-2-(ethylamino)cycloheptyl)oxy)-1-oxoisoindolin-2-yl)piperidine-2,6-dione], the IKZF2 % protein reduction at 10 µM was 80%.

With `O=C1CCC(N2Cc3cc(O[C@H]4CCCCC[C@@H]4N4CC5(COC5)C4)ccc3C2=O)C(=O)N1` (stereo partly drawn) [I-63, 3-(5-(((1S,2S)-2-(2-oxa-6-azaspiro[3.3]heptan-6-yl)cycloheptyl)oxy)-1-oxoisoindolin-2-yl)piperidine-2,6-dione], the IKZF2 % protein reduction at 10 µM under setting [1] came to 85%.

As for `CCN(CC(F)F)[C@H]1CCC[C@@H]1Oc1ccc2c(c1)CN(C1CCC(=O)NC1=O)C2=O` (stereo partly drawn) [I-1, 3-(5-(((1S,2S)-2-((2,2-difluoroethyl)(ethyl)amino)cyclopentyl)oxy)-1-oxoisoindolin-2-yl)piperidine-2,6-dione], the IKZF2 % protein reduction at 10 µM under setting [1] turned out to be 10%.

For the compound `CCN(C[C@H]1CC[C@H](OC)CC1)[C@H]1CCC[C@@H]1Oc1ccc2c(c1)CN(C1CCC(=O)NC1=O)C2=O` (stereo partly drawn) [I-170, 3-(5-(((1S,2S)-2-(ethyl(((1r,4S)-4-methoxycyclohexyl)methyl)amino)cyclopentyl)oxy)-1-oxoisoindolin-2-yl)piperidine-2,6-dione], the IKZF2 % protein reduction at 10 µM stood at 67%.

Regarding `CC(C)CN[C@H]1CCCC[C@@H]1Oc1ccc2c(c1)CN(C1CCC(=O)NC1=O)C2=O` (stereo partly drawn) [I-7, 3-(5-(((1S,2S)-2-(isobutylamino)cyclohexyl)oxy)-1-oxoisoindolin-2-yl)piperidine-2,6-dione], under setting [1], the IKZF2 % protein reduction at 10 µM came out at 85%.

Take `CC(C)CN[C@H]1CCCCC[C@@H]1Oc1ccc2c(c1)CN(C1CCC(=O)NC1=O)C2=O` (stereo partly drawn) [I-61, 3-(5-(((1S,2S)-2-(isobutylamino)cycloheptyl)oxy)-1-oxoisoindolin-2-yl)piperidine-2,6-dione]: the IKZF2 % protein reduction at 10 µM under setting [1] worked out at 84%.

Consider `O=C1CCC(N2Cc3cc(O[C@H]4CCC[C@@H]4N4CCC(O)CC4)ccc3C2=O)C(=O)N1` (stereo partly drawn) [I-96, 3-(5-(((1S,2S)-2-(4-hydroxypiperidin-1-yl)cyclopentyl)oxy)-1-oxoisoindolin-2-yl)piperidine-2,6-dione], for which the IKZF2 % protein reduction at 10 µM under setting [1] was 81%.
